Key:
male ICR mice = assay: mouse tetrad assay; assay type: in vivo
LPS-induced paw edema [1] = assay: LPS-induced paw edema model; assay type: in vivo, mouse; details: for effect of antagonist given alone on LPS paw edema: 3 mg/kg i.p. 30 min before each vehicle injection; for LPS-induced paw edema (change in paw thickness of LPS-injected paw): i.p. 1 h before, 6 and 23 h after LPS, dose-response, measured 24 h, Figure 4A; for paw thickness of the LPS-injected paw, post hoc vs vehicle: 10, 30 and 100 mg/kg CBC, 10 and 30 mg/kg THC; for paw thickness of the saline-injected (contralateral) paw: data not shown
LPS-induced paw edema [2] = details: ref Naidu et al., under review; cited from earlier work
CB1 receptor = details: ref Booker et al., 2009; cited from earlier work
[3] = blood and brain tissue concentrations of THC and CBC by GC/MS; assay type: in vivo, mouse
wild type mice = details: i.v., ref Smith et al., 1994; cited from earlier work
[4] = ref Hunt et al., 1980; Widman et al., 1974; cited from earlier work

## Cc1c(C(=O)NN2CCCCC2)nn(-c2ccc(Cl)cc2Cl)c1-c1ccc(Cl)cc1 [rimonabant]
Male ICR mice; rimonabant 3 mg/kg 10 min before CBC 100 mg/kg i.v.
  blockade of the tetrad effects of CBC: failed to block the pharmacological effects of CBC
Male ICR mice; rimonabant 3 mg/kg, 10 min before vehicle or CBC 100 mg/kg
  main effect of rimonabant on the four tetrad measures: no significant main effects
LPS-induced paw edema [1]
  effect of antagonist given alone on LPS paw edema: Neither rimonabant nor SR144528 given alone affected LPS paw edema
LPS-induced paw edema [1]; antagonist 3 mg/kg 30 min before each THC 10 mg/kg i.p. injection, Figure 4B
  antagonism of the anti-edematous effects of THC: but not rimonabant

## SR144528
LPS-induced paw edema [1]
  effect of antagonist given alone on LPS paw edema: Neither rimonabant nor SR144528 given alone affected LPS paw edema

## C[C@@H]1C[C@H]2[C@@H]3CCC4=CC(=O)C=C[C@]4(C)[C@@]3(F)[C@@H](O)C[C@]2(C)[C@@]1(O)C(=O)CO [dexamethasone]
LPS-induced paw edema [2]
  effect on LPS induced paw edema: ameliorated LPS induced paw edema

## CCCCCc1cc(O)c2c(c1)OC(C)(CCC=C(C)C)C=C2 (centres unmarked) [CBC, cannabichromene]
Male ICR mice; i.v.
  potency in the tetrad relative to THC: substantially less potent than THC
CB1 receptor
  Ki: > 10 µM
LPS-induced paw edema [1]
  LPS-induced paw edema (change in paw thickness of LPS-injected paw): dose-related decreases
LPS-induced paw edema [1]; i.p.
  paw thickness of the LPS-injected paw, post hoc vs vehicle: significant decreases
  paw thickness of the saline-injected (contralateral) paw: neither drug affected the paw thickness
[3]; 30 or 100 mg/kg CBC i.v. with THC 0.3 mg/kg i.v.
  effect of CBC on THC levels in brain: significantly elevated
[3]; CBC 3-100 mg/kg i.v., with or without THC 0.3 mg/kg, 30 min, Figure 3C
  CBC levels in blood with increasing doses of CBC: significant increases
[3]; CBC 3-100 mg/kg i.v., with or without THC 0.3 mg/kg, 30 min, Figure 3D
  CBC levels in brain with increasing doses of CBC: significant increases

## NC(=O)c1cccc(-c2cccc(OC(=O)NC3CCCCC3)c2)c1 [URB597]
LPS-induced paw edema [2]
  effect on LPS induced paw edema: ameliorated LPS induced paw edema

## Cc1c(C(=O)c2cccc3ccccc23)c2cccc3c2n1[C@H](CN1CCOCC1)CO3 [WIN55,212-2]
LPS-induced paw edema [2]
  effect on LPS induced paw edema: ameliorated LPS induced paw edema

## CCCCC/C=C\C/C=C\C/C=C\C/C=C\CCCC(=O)NCCO [anandamide]
Wild type mice
  fold less potent in producing antinociception than hypomotility, catalepsy and hypothermia: 3 – 4 fold

## CCCCCc1cc(O)c2c(c1)OC(C)(C)[C@@H]1CCC(C)=C[C@@H]21 [THC, Δ^9-tetrahydrocannabinol]
Male ICR mice; THC 0.3 mg/kg i.v.
  activity in the tetrad at threshold dose: inactive
LPS-induced paw edema [1]
  LPS-induced paw edema (change in paw thickness of LPS-injected paw): dose-related decreases
LPS-induced paw edema [1]; i.p.
  paw thickness of the LPS-injected paw, post hoc vs vehicle: significant decreases
  paw thickness of the saline-injected (contralateral) paw: neither drug affected the paw thickness
LPS-induced paw edema [1]; individual dose-response curves, i.p.
  ED50 (95% confidence intervals), LPS-induced paw edema: 4.0 (2.7 to 5.9) mg/kg
[3]; THC 0.3 mg/kg i.v. 10 min after CBC 3-100 mg/kg i.v.
  effect of THC on CBC blood and brain levels: no effects
[4]
  THC in blood bound to plasma: About 90%
  THC in blood bound to red blood cells: 10%
  plasma THC bound to lipoproteins: 95 – 99%

— article PMC2967639 (Drug and alcohol dependence, 2010)
